Legend:
[1] = system: S.mutans biofilms; assay: Follow-up observation of pH of washes of a laboratory model of S. mutans biofilms in 10% sucrose; assay type: cell-based, Streptococcus mutans; conditions: 10% sucrose; for Value of pH decrease within 30 min. of measurement (%): compared to the initial value
Protocol: Example No. 2. Follow-up observation of pH of washes of a laboratory model of S. mutans biofilms.
Inoculum of S.mutans control strain was prepared from an ampoule. The ampoule with the dried strain was opened sterilely over a drier or a tray. The upper end of the ampoule was heated on a burner flame, and paraffin was removed; then a piece of sterile absorbent cotton moistened in sterile water was carefully touched to the pulled end of the ampoule so that a small crack appeared, and the same wet cotton was passed around the tip of the ampoule. After the crack had formed, the end of the ampoule was removed with a light blow of tweezers. After opening the ampoule, 0.3-0.5 ml of heart-brain broth was sterilely poured in. After dissolution of the dry contents, the ampoule was transferred with a Pasteur pipette into tubes with 2 ml of heart-brain broth and grown at 37°C for 2 hours in a thermostat in 5% CO2 medium. To restore full viability, 1-2 passages on nutrient media appropriate for the microbes of the species were required. 2 Petri dishes with agar containing 5% horse blood were seeded with 0.1 ml of a 2-hour culture on heart-brain broth of the strain. Petri dishes were incubated at 37°C for 18 hours in an incubator containing 5% CO2. Gram stained smears were prepared from the grown colonies to assess the tinctorial, phenotypic properties and homogeneity of bacteria. Species membership was confirmed using MALDI-TOF reference bases.
Aqueous solutions of nisin in concentrations of 0.004 and 0.008% were taken as the working solutions for testing. […] Distilled water was used as a negative control. […] Urea was chosen due to its ability to alkalinize the environment in bacterial biofilms (Jadon et al., 2018). During the assay, a 10% sucrose solution was used, which is known to be readily metabolized by cariogenic bacteria to acid, thus contributing to the overall acidification of the medium.
The contents of the wells were extracted using an aspirator. All 6 wells of the first row were filled with 1 ml of deionized water and left for 5 min. The water was extracted with an aspirator; 1 ml of the test solution was added into the wells; in 1 min the component was removed, the wells were glazed for 1 min with deionized water, then it was removed. 250 µl of 10% sucrose was added to the wells and biofilms were scraped off the well walls with a disposable plastic loop. The resulting suspension was transferred by pipette into three Eppendorf tubes: contents of wells 1 and 2 into Eppendorf tube No. 1, contents of wells 3 and 4 into Eppendorf tube No. 2, contents of wells 5 and 6 into Eppendorf tube No. 3; next, the measurement of pH started immediately. Time points of the measurement are: 0, 1, 2, 3, 4, 5, 6, 7, 8, 9, 10, 15, 20, 30 min. After the test was finished, the electrode was washed and the described procedure was repeated for the next solution under study.

[2] = system: Streptococcus mutans No. 22081; assay: Effect of nisin concentrations on growth and biomass accumulation of S.mutans, serial two-fold dilutions micromethod, 16-hour follow-up (optical density A565 nm); assay type: cell-based
Description: Example No. 1. Determination of the effect of different concentrations of nisin on growth and biomass accumulation of S.mutans No. 22081 in 16-hour follow-up.
Aqueous solution of nisin in different concentrations was used as the working solution.
To prepare the reaction mixture containing the tested component, a method of serial twofold dilutions in heart-brain broth (Series 201181, valid till 012025., CONDALAB, Spain), a micromethod (flat-bottom 96-well plate), for which serial dilutions of the investigated component were prepared in liquid nutrient medium. When setting the methods of serial dilutions, control of culture growth on medium without the active component was carried out, and the quality of medium and investigated preparations was controlled using reference strains of the species. The purity of the microorganism suspension used for inoculation was also controlled by sowing on non-selective media.
The results of the micromethod formulation to evaluate the effect of drugs on the growth and development of the culture of Streptococcus mutans No. 22081 were recorded spectrophotometrically in an automatic kinetic format (intermittent shaking, T-37°C, measurement of optical density A565 nm every hour in automatic mode).

[3] = heart-brain broth, 37°C, 16-hour follow-up

## Nisin
[1]; Nisin 0.004%, 0 min
  pH of mechanically disrupted S.mutans biofilms: 6.09±0.006
[1]; Nisin 0.004%, 1 min
  pH of mechanically disrupted S.mutans biofilms: 6.08±0.006
[1]; Nisin 0.004%, 1 min vs previous time point
  pH change (in brackets), S.mutans biofilms: -0.01
[1]; Nisin 0.004%, 2 min
  pH of mechanically disrupted S.mutans biofilms: 6.07±0.006
[1]; Nisin 0.004%, 2 min vs previous time point
  pH change (in brackets), S.mutans biofilms: -0.01
[1]; Nisin 0.004%, 3 min
  pH of mechanically disrupted S.mutans biofilms: 6.05±0.006
[1]; Nisin 0.004%, 3 min vs previous time point
  pH change (in brackets), S.mutans biofilms: -0.02
[1]; Nisin 0.004%, 4 min
  pH of mechanically disrupted S.mutans biofilms: 6.05±0
[1]; Nisin 0.004%, 4 min vs previous time point
  pH change (in brackets), S.mutans biofilms: 0
[1]; Nisin 0.004%, 5 min
  pH of mechanically disrupted S.mutans biofilms: 6.04±0.006
[1]; Nisin 0.004%, 5 min vs previous time point
  pH change (in brackets), S.mutans biofilms: -0.01
[1]; Nisin 0.004%, 6 min
  pH of mechanically disrupted S.mutans biofilms: 6.05±0.006
[1]; Nisin 0.004%, 6 min vs previous time point
  pH change (in brackets), S.mutans biofilms: +0.01
[1]; Nisin 0.004%, 7 min
  pH of mechanically disrupted S.mutans biofilms: 6.05±0.006
[1]; Nisin 0.004%, 7 min vs previous time point
  pH change (in brackets), S.mutans biofilms: 0
[1]; Nisin 0.004%, 8 min
  pH of mechanically disrupted S.mutans biofilms: 6.05±0
[1]; Nisin 0.004%, 8 min vs previous time point
  pH change (in brackets), S.mutans biofilms: 0
[1]; Nisin 0.004%, 9 min
  pH of mechanically disrupted S.mutans biofilms: 6.05±0
[1]; Nisin 0.004%, 9 min vs previous time point
  pH change (in brackets), S.mutans biofilms: 0
[1]; Nisin 0.004%, 10 min
  pH of mechanically disrupted S.mutans biofilms: 6.06±0.006
[1]; Nisin 0.004%, 10 min vs previous time point
  pH change (in brackets), S.mutans biofilms: +0.01
[1]; Nisin 0.004%, 15 min
  pH of mechanically disrupted S.mutans biofilms: 6.05±0.006
[1]; Nisin 0.004%, 15 min vs previous time point
  pH change (in brackets), S.mutans biofilms: -0.01
[1]; Nisin 0.004%, 20 min
  pH of mechanically disrupted S.mutans biofilms: 6.04±0.006
[1]; Nisin 0.004%, 20 min vs previous time point
  pH change (in brackets), S.mutans biofilms: -0.01
[1]; Nisin 0.004%, 30 min
  pH of mechanically disrupted S.mutans biofilms: 6.0±0
[1]; Nisin 0.004%, 30 min vs previous time point
  pH change (in brackets), S.mutans biofilms: -0.04
[1]; Nisin 0.004%
  Value of pH decrease within 30 min. of measurement (%): -1.47%
[1]; Nisin 0.008%
  Value of pH decrease within 30 min. of measurement (%): -3.15%
[1]; Nisin 0,008%, 0 min
  pH of mechanically disrupted S.mutans biofilms: 6.33±0
[1]; Nisin 0,008%, 1 min
  pH of mechanically disrupted S.mutans biofilms: 6.32±0.006
[1]; Nisin 0,008%, 1 min vs previous time point
  pH change (in brackets), S.mutans biofilms: -0.01
[1]; Nisin 0,008%, 2 min
  pH of mechanically disrupted S.mutans biofilms: 6.31±0.006
[1]; Nisin 0,008%, 2 min vs previous time point
  pH change (in brackets), S.mutans biofilms: -0.01
[1]; Nisin 0,008%, 3 min
  pH of mechanically disrupted S.mutans biofilms: 6.28±0.01
[1]; Nisin 0,008%, 3 min vs previous time point
  pH change (in brackets), S.mutans biofilms: -0.03
[1]; Nisin 0,008%, 4 min
  pH of mechanically disrupted S.mutans biofilms: 6.24±0.006
[1]; Nisin 0,008%, 4 min vs previous time point
  pH change (in brackets), S.mutans biofilms: -0.04
[1]; Nisin 0,008%, 5 min
  pH of mechanically disrupted S.mutans biofilms: 6.21±0.006
[1]; Nisin 0,008%, 5 min vs previous time point
  pH change (in brackets), S.mutans biofilms: -0.03
[1]; Nisin 0,008%, 6 min
  pH of mechanically disrupted S.mutans biofilms: 6.21±0
[1]; Nisin 0,008%, 6 min vs previous time point
  pH change (in brackets), S.mutans biofilms: -0.03
[1]; Nisin 0,008%, 7 min
  pH of mechanically disrupted S.mutans biofilms: 6.23±0
[1]; Nisin 0,008%, 7 min vs previous time point
  pH change (in brackets), S.mutans biofilms: +0.02
[1]; Nisin 0,008%, 8 min
  pH of mechanically disrupted S.mutans biofilms: 6.23±0
[1]; Nisin 0,008%, 8 min vs previous time point
  pH change (in brackets), S.mutans biofilms: 0
[1]; Nisin 0,008%, 9 min
  pH of mechanically disrupted S.mutans biofilms: 6.21±0
[1]; Nisin 0,008%, 9 min vs previous time point
  pH change (in brackets), S.mutans biofilms: -0.02
[1]; Nisin 0,008%, 10 min
  pH of mechanically disrupted S.mutans biofilms: 6.2±0.006
[1]; Nisin 0,008%, 10 min vs previous time point
  pH change (in brackets), S.mutans biofilms: -0.01
[1]; Nisin 0,008%, 15 min
  pH of mechanically disrupted S.mutans biofilms: 6.18±0
[1]; Nisin 0,008%, 15 min vs previous time point
  pH change (in brackets), S.mutans biofilms: -0.02
[1]; Nisin 0,008%, 20 min
  pH of mechanically disrupted S.mutans biofilms: 6.17±0.006
[1]; Nisin 0,008%, 20 min vs previous time point
  pH change (in brackets), S.mutans biofilms: -0.01
[1]; Nisin 0,008%, 30 min
  pH of mechanically disrupted S.mutans biofilms: 6.13±0.006
[1]; Nisin 0,008%, 30 min vs previous time point
  pH change (in brackets), S.mutans biofilms: -0.04
[1]; nisin 0.004-0.008%
  effect on the pH of cariogenic biofilm affected by sucrose: stabilizing effect
[2]; concentrations lower than 0.0039%
  effect on growth and biomass accumulation: no significant effect
[2]; [3]
  concentrations that significantly inhibited growth and biomass accumulation, but had no bactericidal effect: 0.0039-0.0078%
  final concentration with pronounced antibacterial effect: 0.0078-0.125%
  minimum-suppressive concentration: 0.0039%
[2]; nisin solution in concentration of 0.008% and below
  antibacterial and inhibitory activity against S.mutans: not able to have antibacterial and inhibitory activity

From patent EP4640206A1, “NISIN FOR INHIBITING BIOFILMS” (SkyLab AG, priority 2024, dated 2025)
